Several values for one entry are separate records, joined by “and”; a condition that tells them apart may be missing. Identical values can stand only once.
Tests used:
[1] = test system: SPI-encoded genes; assay type: cell-based, S. Typhimurium
Description: Salmonella was grown for 5 hours at 37°C in LB medium in the presence of 100 μM C26 or 1% (v/v) DMSO as a control. After growth, bacteria were harvested by centrifugation, and total RNA was isolated using the Qiagen RNeasy mini kit according to the manufacturer’s protocol. RNA-seq was performed on a HiSeq2500 with a 2 x 125–base pair paired-end read protocol. The Illumina Casava software was used to demultiplex the sequenced reads providing individual raw fastq sample files. Raw fastq files were prefiltered using the chastity filter to remove reads that contain a “Y” flag. FastQC (https://www.bioinformatics.babraham.ac.uk/projects/fastqc/, version v0.11.4) was used to determine the quality of the resulting fastq files. Subsequently, an adapter trimming/removal step was conducted with Cutadapt (https://pypi.python.org/pypi/cutadapt/, version 1.8.3). […] TopHat2 (https://ccb.jhu.edu/software/tophat/index.shtml, version v2.0.12) was used as aligner to map the remaining quality controlled reads to the Salmonella genome. Read counting to features (e.g., genes or exons) in the genome was performed with HTSeq-count (https://htseq.readthedocs.io/en/master/htseqcount.html, version 0.6.0.). Counting was performed using “union” mode on the feature “gene.” The stranded option was also set to “–stranded=no” to indicate to count features on both strands. Furthermore, the -r parameter from HTSeq was set to “pos” as this is the default of the output of TopHat’s “accepted_hits.bam” mapping file. For differential expression analysis, the raw read count table resulting from HTSeq counting is used and fed into the R package DESeq2 (version 1.10.1). Graphs were also produced in the R language (R version 3.2.1) mainly using the R package ggplot2 (version 2.2.0). Reports were produced using the R package rmarkdown (version 1.3).

[2] = test system: SPI-4 encoded T1SS (SiiE); assay: SiiE-HiBiT cell surface retention assay; assay type: cell-based, S. Typhimurium
Description: HiBiT was inserted chromosomally into SiiE at position K5411, using the suicide plasmid pMIB8021 (pSB890-siiE::K5411HiBiT). Bacteria were grown for 5 hours under SPI-4–inducing conditions (LB supplemented with 0.3 M NaCl). OD units of 0.5 were harvested at 10,000g for 2 min at 4°C. Cell pellets were washed twice with cold PBS and then resuspended to a final concentration of 0.5 OD units. Twenty-five microliters from the bacterial suspension was transferred into a 384-well plate. The Nano-Glo HiBiT Extracellular Buffer and corresponding substrate were prepared according to the manufacturer’s instructions. Twenty-five microliters of the Nano-Glo HiBiT Extracellular buffer-substrate mix was added to each sample and then incubated at r.t. for 10 min. Luminescence was measured with a Tecan Spark microplate reader.

[3] = test system: HilC and RtsA; assay: Whole-cell PhilA activation by rhamnose-induced hilC or rtsA in ΔhilD backgrounds; assay type: cell-based, S. Typhimurium; conditions: C26 100 μM, rhamnose 2 mM
From the text: Next, we investigated the selectivity of C26 for HilD using the whole-cell PhilA activation assay. In the absence of HilD, the pool of HilC and RtsA is insufficient to activate the expression of hilA. Therefore, assessing the sensitivity of HilC and RtsA to C26 requires PhilA to be activated in a HilD-independent manner. To create such a condition, we used a plasmid-encoded hilC or rtsA under the control of a rhamnose-inducible promoter.
A whole-cell reporter gene assay was used to quantify HilD transcriptional activity. Strain PhilA-sfGFP and the isogenic ΔhilD PhilA-sfGFP were used for this purpose. Cultures were performed in 1 ml of LB supplemented with 0.3 M NaCl. Compounds at different concentrations or 1% (v/v) DMSO were added to the corresponding tubes. Cultures were incubated at 37°C and 180 rpm for 5 hours. Cells were pelleted, resuspended in 100 μl of PBS, and then transferred into a 96-well black clear-bottom plate (Thermo Fisher Scientific, USA). Fluorescence intensity was measured with a Tecan Spark microplate reader with an excitation wavelength of 485 nm and an emission wavelength of 510 nm. Dose-response curves and IC50 values were calculated using CDD Vault.

[4] = test system: S. enterica clinical isolates (SipA secretion through T3SS-1); assay: Plasmid-based SipA secretion assay in clinical isolates; assay type: cell-based; conditions: C26 100 μM, 75 strains
Description: The plasmid pT10-SipA-NLuc was electroporated into electrocompetent cells of S. enterica clinical isolates. Bacteria at an initial OD600 of 0.02 were grown for 5 hours in 1 ml of LB supplemented with 0.3 M NaCl, kanamycin (50 μg/ml), and either compound at 100 μM or 1% (v/v) DMSO. Cultures were pelleted, and then 25 μl of the supernatant was transferred to a 384-well plate to measure luminescence as previously described.

[5] = C26 100 μM vs DMSO, single replicates (Fig 2E)
[6] = C26 100 μM, size of the down-regulation given without sign

## CN(CC(=O)NCc1ccc2c(c1)OCO2)Cc1ccc(Br)s1 [C26, N-(benzo[d][1,3]dioxol-5-ylmethyl)-2-{[(5-bromothiophen-2-yl)methyl](methyl)amino}acetamide]
[1]; [5]
  Log2 Fold change STM0972: -1.019 and -1.567 and -1.468
  Log2 Fold change STM05625: -1.06 and -1.782 and -1.1981
  Log2 Fold change avrA: -1.134 and -2.023 and -1.399
  Log2 Fold change hilA: -3.571 and -4.424 and -3.961
  Log2 Fold change hilC: -2.8 and -3.816 and -2.688
  Log2 Fold change hilD: -1.794 and -2.09 and -1.995
  Log2 Fold change iacP: -2.394 and -3.567 and -2.412
  Log2 Fold change iagB: -3.642 and -4.006 and -3.534
  Log2 Fold change invA: -3.221 and -3.81 and -3.166
  Log2 Fold change invB: -2.867 and -3.637 and -3.183
  Log2 Fold change invC: -2.536 and -3.183 and -2.8784
  Log2 Fold change invE: -3.292 and -4.06 and -3.2144
  Log2 Fold change invF: -3.621 and -4.389 and -3.592
  Log2 Fold change invG: -3.834 and -4.335 and -3.589
  Log2 Fold change invH: -3.135 and -3.596 and -3.2198
  Log2 Fold change invI: -3.283 and -3.556 and -3.358
  Log2 Fold change orgA: -1.913 and -2.484 and -2.0655
  Log2 Fold change orgB: -1.03 and -1.516 and -1.313
  Log2 Fold change orgC: -0.8446 and -1.317 and -1.218
  Log2 Fold change pagC: -0.9557 and -1.642 and -1.303
  Log2 Fold change pipB: -1.346 and -1.626 and -1.791
  Log2 Fold change prgH: -2.242 and -3.146 and -2.589
  Log2 Fold change prgI: -2.528 and -3.17 and -2.85
  Log2 Fold change prgJ: -2.351 and -3.201 and -2.717
  Log2 Fold change prgK: -2.159 and -2.912 and -2.508
  Log2 Fold change rtsA: -3.522 and -4.691 and -3.546
  Log2 Fold change sicA: -2.525 and -3.5667 and -2.5609
  Log2 Fold change sicP: -1.008 and -1.8772 and -1.275
  Log2 Fold change sifB: -1.447 and -2.07 and -1.848
  Log2 Fold change sipA: -2.154 and -3.4073 and -2.1103
  Log2 Fold change sipB: -2.364 and -3.5554 and -2.316
  Log2 Fold change sipC: -2.344 and -3.615 and -2.313
  Log2 Fold change sipD: -2.421 and -3.506 and -2.2134
  Log2 Fold change sopB: -1.308 and -2.976 and -1.42
  Log2 Fold change sopD: -1.407 and -0.6715 and -1.948
  Log2 Fold change sopE2: -1.5 and -2.647 and -1.472
  Log2 Fold change spaN: -2.873 and -3.527 and -3.123
  Log2 Fold change spaO: -2.648 and -3.446 and -2.941
  Log2 Fold change spaP: -2.823 and -3.907 and -2.993
  Log2 Fold change spaQ: -3 and -2.087 and -2.907
  Log2 Fold change spaR: -1.963 and -4.022 and -1.926
  Log2 Fold change spaS: -2.051 and -2.854 and -2.155
  Log2 Fold change sprB: -2.031 and -3.538 and -1.986
  Log2 Fold change ssaG: -1.637 and -2.322 and -2.8413
[1]; [6]
  log2 fold change expression RtsA: 3.82
  log2 fold change expression hilA: 3.94
  log2 fold change expression hilC: 3.02
  log2 fold change expression hilD: 1.95
[2]
  SiiE-HiBiT retained on the bacterial cell surface: reduced in a dose-dependent manner
[3]
  PhilA activation with hilC and/or rtsA as sole activators: did not lead to a reduction of PhilA activation
[4]
  sensitivity of clinical isolates (SipA secretion): all sensitive

— article PMC11988454, “Discovery of synthetic small molecules targeting the central regulator of Salmonella pathogenicity” (Science Advances, 2025)
